What was measured:
[1] = test system: L1210; experiment: Compound was tested for the inhibition of mouse L1210 leukemia cell growth
[2] = test system: GC3M(-); experiment: Compound was tested for the inhibition of thymidine kinase deficient human adenocarcinoma GC3M(-) cell growth
[3] = test system: CCRF-CEM; experiment: Compound was tested for the inhibition of human CCRF-CEM leukemia cell growth
[4] = test system: GC3M(-); experiment: Compound was evaluated for cellular growth inhibition in thymidine kinase deficient human adenocarcinoma GC3M(-) cell line
[5] = target: Thymidylate synthase (Escherichia coli, UniProt C3SWJ7)
Thymidylate synthase, sequence (C3SWJ7 whole entry): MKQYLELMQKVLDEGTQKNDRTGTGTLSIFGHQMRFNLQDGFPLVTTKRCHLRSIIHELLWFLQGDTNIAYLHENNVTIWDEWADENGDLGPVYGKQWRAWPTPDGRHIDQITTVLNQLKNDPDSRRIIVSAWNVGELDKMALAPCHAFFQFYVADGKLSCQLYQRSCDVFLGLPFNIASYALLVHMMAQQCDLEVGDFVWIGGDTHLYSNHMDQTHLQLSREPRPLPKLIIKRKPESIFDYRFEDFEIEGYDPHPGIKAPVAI
Description: Inhibition of Escherichia coli Thymidylate synthase (TS)

| Structure (SMILES) | IC50 [1] [µM] | IC50 [2] [µM] | IC50 [3] [µM] | IC50 [4] [µM] | Ki [5] [µM] |
| --- | --- | --- | --- | --- | --- |
| Nc1nc2cc3c(cc2[nH]1)N(Cc1ccc(S(=O)(=O)N2CCOCC2)cc1)CCC3 | 4 | 8.6 | 4 | – | – |
| Nc1nc2cc3c(cc2[nH]1)N(Cc1ccc(C(=O)NC(CCC(=O)O)C(=O)O)cc1)CCC3 (configuration not stated) | 20 | – | 40 | > 50 | – |
| CNc1nc2cc3c(cc2[nH]1)N(Cc1ccc(S(=O)(=O)c2ccccc2)cc1)CCC3 | 3 | > 5 | 3.3 | – | 8.5 |
| COc1ccc(S(=O)(=O)c2ccc(CN3CCCc4cc5nc(C)[nH]c5cc43)cc2)cc1 | 2.8 | 4.1 | 8 | – | 1.3 |
| Nc1nc2cc3c(cc2[nH]1)N(Cc1ccc(S(=O)(=O)c2ccc(O)cc2)cc1)CCC3 | 12 | – | 22 | > 50 | – |
| COc1ccc(S(=O)(=O)c2ccc(CN3CCCc4cc5c(cc43)nc(N)n5C)cc2)cc1 | 0.5 | 3 | 0.9 | – | 0.5 |
| COc1ccc(S(=O)(=O)c2ccc(CN3CCCc4cc5[nH]c(N)nc5cc43)cc2)cc1 | 2.6 | 9 | 5.1 | – | – |
| CSc1nc2cc3c(cc2[nH]1)N(Cc1ccc(S(=O)(=O)c2ccccc2)cc1)CCC3 | > 10 | > 10 | > 10 | – | > 3 |
| Nc1nc2cc3c(cc2[nH]1)N(Cc1ccc(S(=O)(=O)c2ccccc2)cc1)CCC3 | – | > 5 | – | – | – |
| COc1ccc(S(=O)(=O)c2ccc(CN3CCCc4cc5c(cc43)nc(C)n5C)cc2)cc1 | 1.05 | > 5 | 1.8 | – | 5.2 |
| Nc1nc2cc3c(cc2[nH]1)CCCC3Sc1ccc(S(=O)(=O)c2ccccc2)cc1 (configuration not stated) | 7.5 | > 10 | > 10 | – | – |
| O=S(=O)(c1ccc(CN2CCCc3cc4[nH]cnc4cc32)cc1)N1CCNCC1 | – | 43 | – | – | – |
| Nc1nc2cc3c(cc2[nH]1)N(Cc1ccc2cc(CO)ccc2c1)CCC3 | 3.1 | > 5 | > 5 | – | – |
| Nc1nc2cc3c(cc2[nH]1)N(Cc1ccc(S(=O)(=O)N2CCNCC2)cc1)CCC3 | 2 | > 50 | – | – | – |

From ChEMBL document CHEMBL1125390, “Design and synthesis of novel 6,7-imidazotetrahydroquinoline inhibitors of thymidylate synthase using iterative protein crystal structure analysis” (J Med Chem, 1992)
